In PubChem BioAssay (NCI):
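A five-concentration, 48-hour dose response in 96-well plates underlies each endpoint, interpolated linearly between surrounding concentrations. TGI marks complete inhibition of growth.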

How the values were obtained:
Assay in all cases: NCI tumour cell line growth inhibition, 48 h
SNB-78 CNS = system: SNB-78 CNS
LXFL 529 NSCLC = system: LXFL 529 NSCLC
M19-MEL melanoma = system: M19-MEL melanoma
DLD-1 colon = system: DLD-1 colon
DMS 114 small cell lung = system: DMS 114 small cell lung
KM20L2 colon = system: KM20L2 colon
RXF-631 renal = system: RXF-631 renal
SN12K1 renal = system: SN12K1 renal
P388/ADR leukemia = system: P388/ADR leukemia
P388 leukemia = system: P388 leukemia

SMILES | TGI (SNB-78 CNS) [µM] | TGI (LXFL 529 NSCLC) [µM] | TGI (M19-MEL melanoma) [µM] | TGI (DLD-1 colon) [µM] | TGI (DMS 114 small cell lung) [µM] | TGI (KM20L2 colon) [µM] | TGI (RXF-631 renal) [µM] | TGI (SN12K1 renal) [µM] | TGI (P388/ADR leukemia) [µM] | TGI (P388 leukemia) [µM]
O=c1c2ccccc2n2nnc3ccc(NCCNCCO)c1c32 | 27.6 | 14.2 | 8.61 | 15.4 | 13.4 | 8.29 | 9.36 | – | – | –
COc1cc(CNc2nc3c(NC(C)=O)cc(C(F)(F)F)cc3nc2-c2ccccc2)cc(OC)c1OC | – | > 100 | > 100 | > 100 | > 100 | > 100 | – | – | – | –
Nc1ncnc2c1ncn2C1C(O)C=C(CO)C1O (stereo unspecified) | > 625 | – | > 625 | > 625 | > 625 | > 625 | – | > 625 | – | –
Cc1cc(C)c(C2=NO[C@@H]3[C@H]2C(=O)C=C2N(Cc4ccccc4)CCO[C@@]23O)c(C)c1 | > 100 | – | > 100 | > 100 | – | > 100 | – | > 100 | > 100 | > 100
CC(C)C(Nc1c2ccccc2[n+](C)c2ccccc12)C(=O)O (stereo unspecified) | > 100 | > 100 | > 100 | > 100 | > 100 | > 100 | – | – | – | –
